Data on 14 compounds can be found in ChEMBL document CHEMBL4428029, “Notch Antagonists: Potential Modulators of Cancer and Inflammatory Diseases” (J Med Chem, 2016).

Molecules are shown by their SMILES. Residues, ends and D or L forms follow the SMILES beside them. *: point of attachment. Decanoyl = CCCCCCCCCC(=O)*; CH2Cl = ClC*

For test [1], the target named is Gamma-secretase. The test can be described thus: Inhibition of gamma secretase mediated amyloid beta level reduction in HEK293 cells expressing APP after 72 hrs by chemiluminescence assay. The format is cell-based, Homo sapiens.
For test [2], the target named is Gamma-secretase. The test can be described thus: Inhibition of gamma secretase in human primary neuronal cells assessed as reduction in amyloid beta 40.
For test [3], the target named is Gamma-secretase. The test can be described thus: Inhibition of gamma secretase (unknown origin) mediated Notch signaling by cell based luciferase reporter gene assay. In general terms: A reporter such as luciferase makes a cellular process visible.
The target in test [4] is Gamma-secretase. The experiment in a line: Inhibition of full-length human gamma secretase expressed in SH-SY5Y spbetaA4CTF cells assessed as reduction in amyloid beta levels after 90 mins by HTRF assay. The format is cell-based. (Time-resolved FRET reads energy transfer from a long-lived donor to a nearby acceptor.)
Test [5] concerns the target Gamma-secretase. The experiment in a line: Inhibition of gamma secretase (unknown origin) assessed as reduction in amyloid beta levels by HTRF assay. The format is protein-complex assay, Homo sapiens.
Test [6] has as its target Gamma-secretase. The test can be described thus: Inhibition of gamma secretase mediated Notch delta E activation in human HeLa cells expressing EGFP after 16 hrs by immunofluorescence analysis. The format is cell-based.
Test [7] addresses Gamma-secretase. The test can be described thus: Inhibition of gamma secretase in human SupT1 cells assessed as reduction in amyloid beta 40 after 16 hrs by chemiluminescence assay. The format is cell-based.
The target of test [8] is Gamma-secretase. The test can be described thus: Inhibition of gamma secretase mediated Notch signaling in human SupT1 cells after 16 hrs by chemiluminescence assay. The format is cell-based.
In test [9] the target is Gamma-secretase. The experiment in a line: Inhibition of gamma secretase (unknown origin) mediated Notch activation. The format is protein-complex assay, Homo sapiens.
Test [10] deals with Gamma-secretase. The test can be described thus: Inhibition of gamma secretase (unknown origin) mediated Notch signaling. The format is protein-complex assay, Homo sapiens.
In test [11] the target is Disintegrin and metalloproteinase domain-containing protein 17 (Homo sapiens, UniProt P78536). The test can be described thus: Inhibition of ADAM17 (unknown origin) assessed as blockage of TNF-alpha shedding.
The target in test [12] is Gamma-secretase. The experiment in a line: Inhibition of gamma secretase (unknown origin). The format is protein-complex assay, Homo sapiens.
Test [13] has as its target T1, Neuroendocrine convertase 1 (Homo sapiens, UniProt P29120).
T1 sequence (P29120 whole entry): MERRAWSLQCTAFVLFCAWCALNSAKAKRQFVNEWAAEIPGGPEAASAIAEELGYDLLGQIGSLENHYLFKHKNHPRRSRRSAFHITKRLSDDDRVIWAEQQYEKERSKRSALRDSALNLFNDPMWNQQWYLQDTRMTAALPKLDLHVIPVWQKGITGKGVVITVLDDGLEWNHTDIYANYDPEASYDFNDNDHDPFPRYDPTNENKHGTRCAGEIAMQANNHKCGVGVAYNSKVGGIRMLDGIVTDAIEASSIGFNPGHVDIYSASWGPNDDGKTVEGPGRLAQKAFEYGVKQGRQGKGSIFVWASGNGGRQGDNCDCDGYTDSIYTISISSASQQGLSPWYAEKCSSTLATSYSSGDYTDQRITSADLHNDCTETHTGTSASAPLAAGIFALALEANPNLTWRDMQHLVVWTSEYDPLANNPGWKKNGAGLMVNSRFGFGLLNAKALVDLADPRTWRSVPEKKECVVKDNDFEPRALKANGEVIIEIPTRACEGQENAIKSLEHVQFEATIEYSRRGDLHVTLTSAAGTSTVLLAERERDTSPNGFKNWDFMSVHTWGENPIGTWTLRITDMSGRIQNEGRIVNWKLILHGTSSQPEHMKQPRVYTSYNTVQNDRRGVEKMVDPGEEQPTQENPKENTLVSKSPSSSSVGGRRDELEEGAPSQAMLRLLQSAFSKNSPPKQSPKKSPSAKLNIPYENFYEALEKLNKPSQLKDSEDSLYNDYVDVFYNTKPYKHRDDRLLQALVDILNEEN
The test can be described thus: Inhibition of recombinant C-terminal truncated human SPC3 expressed in drosophila Schneider 2 cells after 1 hr by spectrofluorometry. The format is cell-based.

In test [14] the target is T2, Neuroendocrine convertase 2 (Homo sapiens, UniProt P16519).
T2 sequence (P16519 whole entry): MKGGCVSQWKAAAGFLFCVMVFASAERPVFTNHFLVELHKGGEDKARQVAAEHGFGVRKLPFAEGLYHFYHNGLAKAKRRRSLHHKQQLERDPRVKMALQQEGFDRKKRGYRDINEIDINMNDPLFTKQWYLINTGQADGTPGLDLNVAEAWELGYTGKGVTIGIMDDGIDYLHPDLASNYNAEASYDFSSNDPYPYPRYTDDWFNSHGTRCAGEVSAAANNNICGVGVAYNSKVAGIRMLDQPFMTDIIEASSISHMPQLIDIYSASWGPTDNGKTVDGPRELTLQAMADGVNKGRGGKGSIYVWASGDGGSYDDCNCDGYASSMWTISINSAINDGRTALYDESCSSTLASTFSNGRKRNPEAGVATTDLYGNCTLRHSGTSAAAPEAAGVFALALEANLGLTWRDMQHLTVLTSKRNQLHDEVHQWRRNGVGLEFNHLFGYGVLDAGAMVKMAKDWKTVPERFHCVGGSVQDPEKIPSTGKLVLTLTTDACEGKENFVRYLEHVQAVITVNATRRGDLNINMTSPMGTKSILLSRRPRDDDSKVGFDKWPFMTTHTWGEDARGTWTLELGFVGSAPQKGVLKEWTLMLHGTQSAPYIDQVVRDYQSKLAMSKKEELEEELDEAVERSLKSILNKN
The test can be described thus: Inhibition of recombinant C-terminal truncated human SPC2 expressed in drosophila Schneider 2 cells after 1 hr by spectrofluorometry. The format is cell-based.

The target in test [15] is Gamma-secretase. The test can be described thus: Inhibition of gamma secretase (unknown origin) mediated APP cleavage in CHO cells expressing APP Swedish KM/NL mutant assessed as reduction in amyloid beta 40 after 24 hrs by sandwich ELISA.
Test [16] deals with Gamma-secretase. The experiment in a line: Inhibition of gamma secretase (unknown origin) mediated Notch M1726V mutant activation in CHO K1 cells after 48 hrs by chemiluminescence assay.
Test [17] concerns the target Gamma-secretase. The experiment in a line: Inhibition of gamma secretase in human MCF7 cells assessed as reduction in amyloid beta 40 after 3 days by Western blot analysis.
For another test, the system named is A549. The experiment in a line: Antitumor activity against human A549 cells xenografted in nude mouse assessed as tumor growth inhibition at 3 to 60 mg/kg qd or bid administered via oral gavage for 7 to 21 days relative to vehicle treated control. The format is functional. On the technique in general: A xenograft is tissue or cells of one species grown in another, often human tumour cells in immunodeficient mice.

Test [18] concerns the target Gamma-secretase. The experiment in a line: Inhibition of gamma secretase in HEK293 cells expressing APP695 assessed as reduction in amyloid beta (1 to 40 residues) by ELISA. The format is cell-based, Homo sapiens.
In test [19] the target is Gamma-secretase. The test can be described thus: Inhibition of gamma secretase mediated Notch1 signaling in HEK293 cells expressing truncated human Notch1 by luciferase reporter gene assay. The format is cell-based.
Test [20] deals with Gamma-secretase. The test can be described thus: Modulation of gamma secretase (unknown origin) assessed as reduction in amyloid beta levels. The format is protein-complex assay, Homo sapiens.

Chain of Disintegrin and metalloproteinase domain-containing protein 17 (P78536 whole entry, the tested form may be a part): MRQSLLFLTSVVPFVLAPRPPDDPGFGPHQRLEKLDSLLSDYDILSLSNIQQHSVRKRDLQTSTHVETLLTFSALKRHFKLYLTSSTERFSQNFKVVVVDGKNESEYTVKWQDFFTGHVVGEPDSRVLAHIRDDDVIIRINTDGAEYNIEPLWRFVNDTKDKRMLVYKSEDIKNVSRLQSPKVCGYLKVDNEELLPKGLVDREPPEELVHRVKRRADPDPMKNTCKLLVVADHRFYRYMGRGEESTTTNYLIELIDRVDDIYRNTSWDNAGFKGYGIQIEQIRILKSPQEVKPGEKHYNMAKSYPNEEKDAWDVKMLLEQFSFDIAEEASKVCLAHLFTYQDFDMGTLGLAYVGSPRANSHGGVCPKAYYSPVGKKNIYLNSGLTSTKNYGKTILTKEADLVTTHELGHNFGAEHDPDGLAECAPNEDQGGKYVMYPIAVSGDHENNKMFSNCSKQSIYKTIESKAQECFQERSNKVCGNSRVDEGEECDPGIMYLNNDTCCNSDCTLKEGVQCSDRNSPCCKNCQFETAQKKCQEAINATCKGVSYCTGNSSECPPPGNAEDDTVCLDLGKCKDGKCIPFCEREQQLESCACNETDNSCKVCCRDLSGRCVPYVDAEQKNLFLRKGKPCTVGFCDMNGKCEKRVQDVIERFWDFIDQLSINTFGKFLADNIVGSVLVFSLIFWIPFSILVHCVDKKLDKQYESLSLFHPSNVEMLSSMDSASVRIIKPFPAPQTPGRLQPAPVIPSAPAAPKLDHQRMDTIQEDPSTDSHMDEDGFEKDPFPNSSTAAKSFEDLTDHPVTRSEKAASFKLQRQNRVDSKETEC

Consider `COc1oc(=O)c2cc(N)ccc2c1Cl`, for which the IC50 (in general, the midpoint of a concentration-inhibition curve) against Gamma-secretase [1] was 30 µM. Turning to `C[C@H](NC(=O)Cc1cc(F)cc(F)c1)C(=O)N[C@H](C(=O)OC(C)(C)C)c1ccccc1`, the IC50 on Gamma-secretase [2] was 115 to 200 nM; against Gamma-secretase [3], 500 nM. Take `CC(C)C[C@H](NC(=O)[C@H](Cc1ccccc1)C[C@@H](O)[C@H](Cc1ccccc1)NC(=O)OC(C)(C)C)C(=O)N[C@@H](Cc1ccccc1)C(N)=O`: the IC50 on Gamma-secretase [4] is 115 to 200 nM; on Gamma-secretase [5], 17 nM. As to `CC1=C(C(=O)OC2CCCCC2)C(c2ccc([N+](=O)[O-])cc2)C2=C(CC(C)(C)CC2=O)N1` (configuration not stated), the IC50 against Gamma-secretase [6] came out at 2300 nM. On to `C[C@H](NC(=O)Cc1cc(F)cc(F)c1)C(=O)N[C@@H]1C(=O)N(C)c2ccccc2-c2ccccc21`, for which the figures for the IC50 on Gamma-secretase [7] and against Gamma-secretase [8] were 2.6 nM and 2.9 nM, respectively. Consider `CC(C)[C@H](O)C(=O)N[C@@H](C)C(=O)N[C@@H]1C(=O)N(C)c2ccccc2-c2ccccc21`, for which the IC50 against Gamma-secretase [9] is 0.27 nM. For `C[C@H](NC(=O)CCC(F)(F)F)C(=O)N[C@H]1C(=O)N(CCO)c2ncccc2-c2ccccc21`, at Gamma-secretase [10], 0.41 nM corresponded to half-maximal inhibition (IC50). As to `CC(C)CC(CC(=O)NO)C(=O)N[C@@H](Cc1ccc2ccccc2c1)C(=O)N[C@@H](C)C(=O)NCCN` (some centres not stated), the IC50 in test [11] is 8.1 µM. Regarding `CC(C)[C@H](O)C(=O)N[C@@H](C)C(=O)N[C@@H]1C(=O)N(C)CCc2ccccc21`, the IC50 against Gamma-secretase [10] was 14.1 nM; against Gamma-secretase [12], 10.9 to 12.1 nM. `CCCCCCCCCC(=O)N[C@@H](CCCNC(=N)N)C(=O)N[C@H](C(=O)N[C@@H](CCCCN)C(=O)N[C@@H](CCCNC(=N)N)C(=O)CCl)C(C)C` (Decanoyl-RVKR-CH2Cl): the Ki (usually a measure of affinity in units of concentration, obtained from inhibition or displacement) in test [13] was 2 nM; in test [14] it was 0.36 nM. Take `O=S(=O)(N[C@H](CO)C(C(F)(F)F)C(F)(F)F)c1ccc(Cl)s1` [BEGACESTAT]: the IC50 stood at 14.8 nM on Gamma-secretase [15] and 208 nM on Gamma-secretase [16].

With `O=C(O)CC[C@H]1CC[C@@](c2cc(F)ccc2F)(S(=O)(=O)c2ccc(Cl)cc2)CC1` [MK-0752], the IC50 at Gamma-secretase [17] was 5 nM.

For the compound `CC(C)(C(=O)NCC(F)(F)C(F)(F)F)C(=O)N[C@@H]1C(=O)Nc2ccccc2-c2ccccc21` [RG-4733], the TGI with A549 is recorded as 66 - 91%. For the same compound, the EC50 (commonly the concentration needed to bring the measured effect to its halfway point) at Gamma-secretase [18] was found to be 14 nM; at Gamma-secretase [19], 5 nM. As for `C[C@@H](C(=O)O)c1ccc(-c2ccccc2)c(F)c1` [TARENFLURBIL], on Gamma-secretase [20], the IC50 turned out to be 100 µM.
